Measured values published in ChEMBL document CHEMBL3507680, “University of Dundee, Gates Library screen for HepG2 cell viability”.

Experiment: Human HepG2 cell viability assay in 384 well format
Type: toxicity, cell-based
Design: dose 125 nL, time 70.5 hour; concentration not given beside the values
Settings: HepG2 cells, read-out: Inhibition

SMILES | cytotoxicity at 70.5 h [%]
O=C(c1ccc[nH]1)N1CCN(Cc2ccncc2)c2ncccc2C1 | -11.6
COc1ccc(C(=O)N2C[C@@H](C(=O)O)[C@H](c3ccccc3C)C2)c(O)c1 | -6.81
CS(=O)(=O)N1CCN(c2ccc(Nc3ccccn3)nn2)CC1 | -6.91
NC(=O)c1csc(N2C[C@@H](CN3CCC(O)CC3)[C@@H](CO)C2)n1 | -6.31
CN(c1ccc(C#N)cn1)C1CCCN(Cc2noc(C3CC3)n2)C1 (centres undefined) | -0.287
CN(C(=O)c1ccncc1Cl)c1ccccc1S(C)(=O)=O | 12.1
COCCC1(C(=O)O)CCCN(Cc2cc3c(cc2C)OCO3)C1 (centres undefined) | -2.46
Cc1cn2c(n1)CCC(NS(=O)(=O)c1sc(C)nc1C)C2 (centres undefined) | 3.5
Cc1cc(C(=O)O)cc(S(=O)(=O)Nc2ccc3c(c2)OCCCO3)c1C | -5.74
COC[C@@]12CCO[C@@H]1CCN(C(=O)C1CC(F)(F)C1)C2 | -11.5
NC1(c2nc(C(F)(F)F)cc(=O)[nH]2)CCCC1 | 21.9
COc1ccc(OC)c(-n2cnnc2CN)c1 | -2.21
CN1CCC(C2CCN(Cc3cccc(-n4cccn4)c3)CC2)C1 (centres undefined) | 2.02
CCCC(C)N(C)C(=O)c1nc(S(C)(=O)=O)n2ccccc12 (centres undefined) | 0.813
CS(=O)(=O)C1=C(O)C(=O)N(c2ccccc2)C1c1ccccc1 (centres undefined) | -4.58
O=C1CCC2(CCN(Cc3ccc(F)cc3)CC2)N1CCN1CCCC1 | -19.9
CN1CC(=O)N(c2ccsc2)CC12CCN(C(=O)Nc1ccccc1)C2 (centres undefined) | -4.43
Cc1cc(C2CCCN2CCCc2nc3ccccc3o2)on1 (centres undefined) | -16.1
Cc1ccccc1C1CCN(C(=O)CCNS(C)(=O)=O)C1 (centres undefined) | 20.6
CN(Cc1nc(-c2ccccc2)c[nH]1)C(=O)NCC(=O)NC(C)(C)C | -5.84
Cc1ccnc(NCCSc2nccn2C)n1 | -5.33
COc1c(Cl)cc(C(=O)NCCNc2ncccn2)cc1Cl | 20.5
CCN(Cc1c(C)nn(CC)c1C)S(=O)(=O)c1cnn(C)c1 | -6

SMILES | cytotoxicity at 70.5 h [%]
Cc1nnc2n1CCN(C(=O)c1cc(Cl)c[nH]1)C2 | -6.67
CS(=O)(=O)NC1CCN(C(=O)NCc2ccccn2)CC1 | -2.65
COC(=O)c1ccn(COc2ccccc2Cl)n1 | -9.21
O=C(NCc1ccc(-n2cncn2)nc1)c1ccoc1 | 22.2
CCc1nc2n(n1)CC(NCc1ccnc(-c3ccccc3)n1)CC2 (centres undefined) | -10
COCC1CN(Cc2ccncc2)Cc2nn(C)cc21 (centres undefined) | 30.7
O=C(CN1CCSCC1c1ccccc1)N1CCOCC1 (centres undefined) | -3.64
O=C(CCn1cncn1)N1C[C@H]2CC[C@@H]1CN(Cc1cccnc1)C2 | -9.48
O=C(NCCN1CCOCC1)NCc1ccc(-n2cccn2)cc1 | 1.89
O=C(c1ccsc1)N1CCC(c2nnc(C3CC3)o2)CC1 | 28.3
Cc1cc(C[C@@H]2COC[C@@H]2NC(=O)CNC(=O)N(C)C)on1 | 9.05
O=C(NCCc1[nH]nc2c1CCCC2)C1CCCN(Cc2ccco2)C1 (centres undefined) | -2.55
CC(=O)N(Cc1ccc(NCc2cnn(C(C)(C)C)c2)cc1)C(C)C | -3.55
O=C(Cn1cc(I)cn1)N1CCNC1=O | -8.59
Cc1ccc(S(=O)(=O)n2ccn(C(=O)COc3ccccc3)c2=O)cc1 | -9.68
CCC(C)Oc1cc(C(=O)N(c2cccnc2)C(C)C)ccn1 (centres undefined) | 0.858
CCc1nc(C)c(C(=O)N2CCCN(Cc3cnn(C)c3)CC2)s1 | -9
O=C1CC2(CCN(Cc3ccc(-c4ccn[nH]4)s3)CC2)CN1 | -13.8
CC(=O)N1Cc2ccccc2C[C@H]1C(=O)N(C)Cc1ccccn1 | -14.8
CC(C)(C)NC(=O)CNc1ncccn1 | -8.78
O=C(c1cnccn1)N1CCn2cnc(COCC3CC3)c2C1 | 14.8
O=C(c1cccc(S(=O)(=O)NCCCc2ccco2)c1)N1CCOCC1 | 3.78
CN1CCc2c(CNC(=O)c3nccn3C)cncc2C1 | -0.526

SMILES | cytotoxicity at 70.5 h [%]
O=C(NCc1nc(C2CCCCC2)no1)C1CC(=O)N(C2CC2)C1 (centres undefined) | 5.86
Cc1cc(C)n(C2CN(c3nc(N)nc4c3CCCC4)C2)n1 | -16.5
COC1CCN(c2ccc(NC(=O)Cn3cccn3)cc2)CC1 | -8
CC(C)c1nnc2n1CC(CNc1cnc3ccccc3n1)CC2 (centres undefined) | -9.13
Cn1nccc1C(=O)N1CCCC1c1[nH]ncc1C(N)=O (centres undefined) | -6.47
CN(C(=O)c1ccccn1)c1nc2c(s1)CCc1c-2cnn1C | 8.04
Cc1cc(C)n(CC(C)CNC(=O)NCc2c(C)cc(C)[nH]c2=O)n1 (centres undefined) | -10.1
N#Cc1ccc(C(=O)NCCCNc2ccc(C(F)(F)F)cn2)cc1 | 0.522
CN(Cc1cc(C2CC2)on1)C(=O)C(c1cccnc1)N1CCCC1 (centres undefined) | -1.03
CCn1ccnc1C1CCN(Cc2cccc(C)n2)CC1 | 2.62
c1cnc(NC[C@@H]2CCC[C@@H]3CN(Cc4csnn4)C[C@@H]32)nc1 | -9.2
CNC(=O)c1ccc(CN(C)c2ccc(C(F)(F)F)cn2)cc1 | 6.65
CN1CC(Oc2ccccc2)=NC(SCC(=O)Nc2ccccc2Cl)=N1 | 5.43
Cc1ccc(C2C3=C(COC3=O)Nc3[nH]nc(C)c32)cc1C (centres undefined) | -3.38
CN1CCN(Cn2nc(-c3cccs3)ccc2=O)CC1 | -29.8
COc1cc(F)ccc1C(C(=O)O)N(C)CCN1CCOCC1 (centres undefined) | 15.1
Cn1c(=O)[nH]c(=O)n2c(CC(=O)Nc3ccccc3)cnc12 | -15.7
CN(C)C(=O)N1CC[C@@H](O)[C@@H]1Cc1ccccc1 | -7.54
NC(=O)CC1CCN(C(=O)NCc2ccccc2-n2cccn2)CC1 | -1.19
CN(CC(=O)NC(C)(C#N)C1CC1)Cc1nnc(C2CC2)n1C (centres undefined) | 1.7
Cc1cc(-c2nn(C)c(Cl)c2CN2CCOCC2CC(=O)O)no1 (centres undefined) | -7.35
CC(C)Nc1cccc(CNC(=O)N2CCC(N3CC=CC3)C2)c1 (centres undefined) | 30.6
Cc1ccc2[nH]c(CN(C)c3cc(CN)nc(C)n3)nc2c1 | 0.934

SMILES | cytotoxicity at 70.5 h [%]
C=Cn1ncc(CN2CCC(c3ncc(Cl)cc3S(C)(=O)=O)CC2)c1C | 10
O=C(NCCO)C1(Cc2ccccc2-c2cccnc2)CCOCC1 | -10.7
Cc1cc(NC(=O)CNC2CCCN(c3cccnn3)C2)on1 (centres undefined) | 43.8
NC(=O)COc1cccc(CN2CCCC2c2ccc[nH]2)c1 (centres undefined) | -5.09
O=C(NC1CC(=O)N(C2Cc3ccccc3C2)C1)c1ccsc1 (centres undefined) | -3.74
c1cnc(N2CCO[C@H]3CN(CC4CCOCC4)C[C@H]32)nc1 | -3.7
CCN(CC)CCNC(=O)c1ccc(Cl)c(NS(C)(=O)=O)c1 | 4.61
CC(C)c1noc(-c2ccc(NCCCN3CCCC(O)C3)nc2)n1 (centres undefined) | -6.37
c1ccc2sc(N3CCCC4(CCOC4)C3)nc2c1 (centres undefined) | -2.11
CC(C)NCc1cc2n(n1)CCN(C1CCCCC1)C2 | 9.14
CC(=O)N1CCN(Cc2ccc(OCc3nccn3C)cc2)CC1 | -8.75
Cc1ccc(CN2CCCC(c3nnc(CN4CCCC4)n3C)C2)s1 (centres undefined) | -0.483
O=C1COc2c(cccc2C(=O)N2CCCC(n3cccn3)C2)N1 (centres undefined) | 23.6
COc1ccc(F)c(-c2ncccc2NC(=O)C(C)C)c1 | 6.17
O=C(NCc1ccco1)[C@H]1COC[C@H]2CN(Cc3ccccn3)C[C@H]21 | -8.72
Cc1noc([C@@H]2C[C@H](NC(=O)Nc3ccccc3)CN2C)n1 | -1.94
CN(CC(=O)NCC(F)(F)F)Cc1cccc2c1OCCO2 | 14.8
O=C(C1CCOCC1)N1CCN(CC2CC2)c2ncccc2C1 | -14.2
COc1ccc(CCN)cc1-c1ccc(S(C)(=O)=O)cc1 | -8.83
Cc1ocnc1C(=O)N1CCN(CCOc2ccccc2)CC1 | -10.4
CCn1c(N)nc2cc(C(=O)N3CCN(CC(F)(F)F)CC3)cnc21 | -13
CCN1CC(CN(C)Cc2nc(-c3ccoc3)oc2C)CC1=O (centres undefined) | 0.925
Cc1ccc(CNCC2CCN(CCO)CC2)cc1 | 39.2

SMILES | cytotoxicity at 70.5 h [%]
COCCN1CCO[C@H]2CN(Cc3cc[nH]n3)C[C@H]21 | -7.3
CCc1nccn1C1CCCN(C(=O)c2ccnc(N(C)C)c2)C1 (centres undefined) | -7.75
Cc1ccc(C(C)(O)CNC(=O)c2sccc2OC(F)F)o1 (centres undefined) | -12
COc1cc(CNC(=O)c2c(C)noc2C(C)C)ccn1 | -2.32
Cc1noc(C(C)C)c1C(=O)NCCN1CCOCC1 | -17.9
Cc1ccnc(C2CCCN2C(=O)CN(C)C)n1 (centres undefined) | -1.48
CCC(O)CN1CCN(C(=O)CCSC)CC1 (centres undefined) | 0.756
CCCC(C#N)NC(=O)CCCOc1cccc(F)c1 (centres undefined) | -9.46
Cc1cc(N2CCC3(CC2)C(C(=O)O)CC(=O)N3C)nc2ccccc12 (centres undefined) | -6.81
CCc1cc(C)c(C(=O)N2CCCC(c3nnn[nH]3)C2)o1 (centres undefined) | -0.273
Cc1nn(C)cc1C(=O)N1CCCC(n2nnc3cc(F)ccc32)C1 (centres undefined) | 11.8
O=C(Cc1n[nH]c(-c2cncc(Br)c2)n1)NCc1ccncc1 | -9.88
Cc1noc(C)c1CCCNC(=O)Nc1ccc2c(c1)COC2 | 7.04
CCN(Cc1nccn1C)C(=O)c1ccc(NCC(C)C)nc1 | -6.64
O=C(Cc1ccco1)N1C[C@H]2CCC[C@@]2(COc2cccnc2)C1 | -5.14
O=C(Nc1ccncc1)C1=NN(c2ccccc2)C(=O)CN1 | -16.1
O=C1CC(c2ncc(-c3ccc4c(c3)OCCO4)[nH]2)CN1C1CCCC1 (centres undefined) | -4.48
CC(C)c1noc(CCC(=O)N2CCN(C)CC2c2ccccc2)n1 (centres undefined) | -9.08
O=C(NCC1(CO)CC1)NC(c1nccs1)C1CC1 (centres undefined) | -3.86
O=C(c1ccc(C2CCCN2C(=O)c2ccc[nH]2)s1)N1CCSCC1 (centres undefined) | -19.6
Cc1nccn1-c1ccc(CNS(=O)(=O)N2CCCCC2C)cn1 (centres undefined) | -3.35
Cc1nnc([C@@H]2CC[C@@H]3[C@@H](CCN3CC3CCOCC3)O2)o1 | -1.38
